Results reported in patent publication US12662491B2 (Redona Therapeutics, Inc., priority 2020, dated 2026).

molecular target: T1, Zcchc11 enzyme (Homo sapiens, UniProt Q5TAX3); assay: TUTase assay (Zcchc11 assay, Lin28a-dependent polyuridylation of pre-let-7); type: biochemical; conditions: Lin28a-dependent Zcchc11 (Z11) TUTase activity; read-out: Potency Lin28a-dep Z11 IC50
T1 construct: made in house; host or cells: HEK293 cells (Zcchc11); E. coli Rosetta II (LIN28A)
T1 sequence (Q5TAX3 212-1420): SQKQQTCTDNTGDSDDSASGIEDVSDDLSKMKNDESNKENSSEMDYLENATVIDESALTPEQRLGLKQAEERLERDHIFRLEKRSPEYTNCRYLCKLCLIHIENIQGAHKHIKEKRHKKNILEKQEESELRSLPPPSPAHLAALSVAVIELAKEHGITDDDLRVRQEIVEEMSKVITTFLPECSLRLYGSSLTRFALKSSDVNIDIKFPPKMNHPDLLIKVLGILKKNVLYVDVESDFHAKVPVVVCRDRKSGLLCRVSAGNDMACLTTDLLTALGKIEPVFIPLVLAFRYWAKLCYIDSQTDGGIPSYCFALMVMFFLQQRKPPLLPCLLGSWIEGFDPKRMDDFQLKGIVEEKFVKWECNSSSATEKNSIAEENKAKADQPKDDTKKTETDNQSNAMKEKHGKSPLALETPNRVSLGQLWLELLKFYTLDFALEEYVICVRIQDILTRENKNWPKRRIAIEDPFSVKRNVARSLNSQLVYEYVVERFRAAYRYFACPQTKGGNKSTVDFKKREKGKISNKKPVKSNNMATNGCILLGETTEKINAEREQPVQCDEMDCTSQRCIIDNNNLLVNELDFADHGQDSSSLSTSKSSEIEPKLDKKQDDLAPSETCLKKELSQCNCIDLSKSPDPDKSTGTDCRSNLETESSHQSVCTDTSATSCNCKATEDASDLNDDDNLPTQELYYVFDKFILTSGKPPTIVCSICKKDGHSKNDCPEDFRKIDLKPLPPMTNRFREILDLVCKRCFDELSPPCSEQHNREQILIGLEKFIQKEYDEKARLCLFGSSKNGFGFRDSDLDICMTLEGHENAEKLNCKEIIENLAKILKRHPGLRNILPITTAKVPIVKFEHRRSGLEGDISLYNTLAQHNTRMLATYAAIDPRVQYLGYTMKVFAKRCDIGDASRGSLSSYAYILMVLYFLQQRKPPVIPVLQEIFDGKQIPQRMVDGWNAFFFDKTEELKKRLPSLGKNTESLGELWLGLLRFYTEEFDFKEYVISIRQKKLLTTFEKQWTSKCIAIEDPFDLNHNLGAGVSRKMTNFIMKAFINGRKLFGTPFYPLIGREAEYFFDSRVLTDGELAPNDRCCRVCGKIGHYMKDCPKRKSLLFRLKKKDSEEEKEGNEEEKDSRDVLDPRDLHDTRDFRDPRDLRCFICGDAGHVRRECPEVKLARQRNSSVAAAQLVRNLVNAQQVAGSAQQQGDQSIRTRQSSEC
How it was run: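 HEK293-expressed human Zcchc11 (residues 212-1420, 0.2 nM) with 10 nM LIN28A and 2 nM 5′-fluorescein pre-let-7, preincubated 30 min at room temperature, pH 7.3. Started with 5 uM UTP; poly(U) tails quenched by 3′-rhodamine A20 probe, read kinetically. IC50 from early-rate four-parameter fit; no-UTP wells define 0%.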

SMILES | IC50
CN(C)C1CN(c2ccc(-n3cc(C(=O)O)c(=O)c4cc(C#N)c(N5C[C@@H]6C[C@@H]6C5COc5ncccc5F)cc43)cn2)C1 (stereo partly drawn) [Compound 293, 6-cyano-1-(6-(3-(dimethyl-amino)azetidin-1-yl)pyridin-3-yl)-7-((1S,5R)-2-(((3-fluoropyridin-2-yl)oxy)methyl)-3-azabicyclo [3.1.0]hexan-3-yl)-4-oxo-1,4-dihydro-quinoline-3-carboxylic acid] | ≤ 1000 nM
COc1ccc(Cl)c(OC[C@H]2CCCN2c2cc3c(cc2Cl)c(=O)c(C(=O)O)cn3-c2ccc(N)nc2)n1 [Compound 294, (R)-1-(6-aminopyridin-3-yl)-6-chloro-7-(2-(((3-chloro-6-methoxy-pyridin-2-yl)oxy)methyl)pyrrolidin-1-yl)-4-oxo-1,4-dihydro-quinoline-3-carboxylic acid] | ≤ 1000 nM
CN(C)C1CN(c2ccc(-n3cc(C(=O)O)c(=O)c4cc(Cl)c(N5CCCC5)cc43)cn2)C1 [Compound 295, C6-chloro-1-(6-(3-(dimethyl-amino)azetidin-1-yl)pyridin-3-yl)-4-oxo-7-(pyrrolidin-1-yl)-1,4-dihydro-quinoline-3-carboxylic acid] | 1000 to 10000 nM
CC1C[C@H](COc2ncccc2Cl)N(c2cc3c(cc2Cl)c(=O)c(C(=O)O)cn3-c2ccc(N3CC(N(C)C)C3)nc2)C1 (stereo partly drawn) [Compound 296, 6-chloro-7-((2R)-2-(((3-chloropyridin-2-yl)oxy)methyl)-4-methyl-pyrrolidin-1-yl)-1-(6-(3-(dimethyl-amino)azetidin-1-yl)pyridin-3-yl)-4-oxo-1,4-dihydro-quinoline-3-carboxylic acid] | ≤ 1000 nM
Cc1cc2c(=O)c(C(=O)O)cn(-c3ccnc(N)c3)c2cc1N1CCC[C@@H]1COc1ncccc1Cl [Compound 297, (R)-1-(2-aminopyridin-4-yl)-7-(2-(((3-chloropyridin-2-yl)oxy)methyl)pyrrolidin-1-yl)-6-methyl-4-oxo-1,4-dihydro-quinoline-3-carboxylic acid] | ≤ 1000 nM
Cc1cc2c(=O)c(C(=O)O)cn(-c3ccc(N4CC(N(C)C)C4)nc3)c2cc1N1C(=O)CC1COc1ccccn1 (centres unmarked) [Compound 298, 1-(6-(3-(dimethyl-amino)azetidin-1-yl)pyridin-3-yl)-6-methyl-4-oxo-7-(2-oxo-4-((pyridin-2-yloxy)methyl)azetidin-1-yl)-1,4-dihydro-quinoline-3-carboxylic acid] | 10000 to 50000 nM
COc1ccc(Cl)c(OC[C@H]2CCCN2c2cc3c(cc2Cl)c(=O)c(C(=O)O)cn3-c2ccc(N3CC(N(C)C)C3)nc2)n1 [Compound 299, (R)-6-chloro-7-(2-(((3-chloro-6-methoxy-pyridin-2-yl)oxy)methyl)pyrrolidin-1-yl)-1-(6-(3-(dimethyl-amino)azetidin-1-yl)pyridin-3-yl)-4-oxo-1,4-dihydro-quinoline-3-carboxylic acid] | ≤ 1000 nM
O=C(O)c1cn2c3cc(c(Cl)cc3c1=O)N1CCC[C@@H]1COc1nc(ccc1Cl)OCCCNc1ccc-2cn1 [Compound 300, (R)-26,63-dichloro-24-oxo-21,24-dihydro-5,7-dioxa-11-aza-2(1,7)-quinolina-1(5,2),6(2, 6)-dipyridina-3(1,2)-pyrrolidina cyclo-undecaphane-23-carboxylic acid] | ≤ 1000 nM
CN(C)C1CN(c2ccc(-n3cc(C(=O)O)c(=O)c4cc(Cl)c(N5CC(F)(F)C[C@@H]5COc5ncccc5Cl)nc43)cn2)C1 [Compound 301, (R)-6-chloro-7-(2-(((3-chloropyridin-2-yl)oxy)methyl)-4,4-difluoro-pyrrolidin-1-yl)-1-(6-(3-(dimethyl-amino)azetidin-1-yl)pyridin-3-yl)-4-oxo-1,4-dihydro-1,8-naphthyridine-3-carboxylic acid] | ≤ 1000 nM
COCCN(C)C1CN(c2ccc(-n3cc(C(=O)O)c(=O)c4cc(F)c(N5CCC[C@@H]5COc5nc(OC)ccc5Cl)cc43)cn2)C1 [Compound 302, (R)-7-(2-(((3-chloro-6-methoxy-pyridin-2-yl)oxy)methyl)pyrrolidin-1-yl)-6-fluoro-1-(6-(3-((2-methoxyethyl) (methyl)amino)azetidin-1-yl)pyridin-3-yl)-4-oxo-1,4-dihydro-quinoline-3-carboxylic acid] | ≤ 1000 nM
CN(C)C1CN(c2ncc(-n3cc(C(=O)O)c(=O)c4cc(Cl)c(N5CC(c6cccnc6)C[C@@H]5COc5ncccc5Cl)cc43)cn2)C1 (stereo partly drawn) [Compound 303, 6-chloro-7-((2R)-2-(((3-chloropyridin-2-yl)oxy)methyl)-4-(pyridin-3-yl)pyrrolidin-1-yl)-1-(2-(3-(dimethyl-amino)azetidin-1-yl)pyrimidin-5-yl)-4-oxo-1,4-dihydro-quinoline-3-carboxylic acid] | ≤ 1000 nM
CN(C)C1CN(c2ccc(-n3cc(C(=O)O)c(=O)c4cc(Cl)c(N5CC(c6cn[nH]c6)C[C@@H]5COc5ncccc5Cl)cc43)cn2)C1 (stereo partly drawn) [Compound 304, 6-chloro-7-((2R)-2-(((3-chloropyridin-2-yl)oxy)methyl)-4-(1H-pyrazol-4-yl)pyrrolidin-1-yl)-1-(6-(3-(dimethyl-amino)azetidin-1-yl)pyridin-3-yl)-4-oxo-1,4-dihydro-quinoline-3-carboxylic acid] | ≤ 1000 nM
CC1CCN(c2cc3c(cc2Cl)c(=O)c(C(=O)O)cn3-c2ccc(N3CC(N(C)C)C3)nc2)C1COc1ncccc1Cl (centres unmarked) [Compound 306, 6-chloro-7-(2-(((3-chloropyridin-2-yl)oxy)methyl)-3-methyl-pyrrolidin-1-yl)-1-(6-(3-(dimethyl-amino)azetidin-1-yl)pyridin-3-yl)-4-oxo-1,4-dihydro-quinoline-3-carboxylic acid] | ≤ 1000 nM
Cc1ccc(Cl)c(OC[C@H]2C[C@H]3C[C@H]3N2c2cc3c(cc2Cl)c(=O)c(C(=O)O)cn3-c2ccc(N(C)C)nc2)n1 [Compound 308, 6-chloro-7-[(1R,3R,5R)-3-{[(3-chloro-6-methylpyridin-2-yl)oxy]methyl}-2-azabicyclo [3.1.0]hexan-2-yl]-1-[6-(dimethyl-amino)pyridin-3-yl]-4-oxoquinoline-3-carboxylic acid] | ≤ 1000 nM
Cc1ccc(Cl)c(OC[C@H]2C[C@H]3C[C@H]3N2c2cc3c(cc2F)c(=O)c(C(=O)O)cn3-c2ccc(N(C)C)nc2)n1 [Compound 309] | ≤ 1000 nM
CN(C)C1CN(c2ccc(-n3cc(C(=O)O)c(=O)c4cc(Cl)c(N5C(COc6ncccc6Cl)CCS5(=O)=O)cc43)cn2)C1 (centres unmarked) [Compound 311, 6-chloro-7-(3-(((3-chloropyridin-2-yl)oxy)methyl)-1,1-dioxidoiso-thiazolidin-2-yl)-1-(6-(3-(dimethyl-amino)azetidin-1-yl)pyridin-3-yl)-4-oxo-1,4-dihydro-quinoline-3-carboxylic acid] | ≤ 1000 nM
Nc1ccc(-n2cc(C(=O)O)c(=O)c3cc(F)c(N4CCC[C@@H]4COc4ncccc4F)cc32)cn1 [Compound 316, 1-(6-Aminopyridin-3-yl)-6-fluoro-7-[(2R)-2-[[(3-fluoropyridin-2-yl)oxy]methyl]pyrrolidin-1-yl]-4-oxoquinoline-3-carboxylic acid] | ≤ 1000 nM
Nc1ccc(-n2cc(C(=O)O)c(=O)c3cc(F)c(N4CCC[C@@H]4COc4ncccc4Cl)cc32)cn1 [Compound 317, 1-(6-Aminopyridin-3-yl)-7-[(2R)-2-[[(3-chloropyridin-2-yl)oxy]methyl]pyrrolidin-1-yl]-6-fluoro-4-oxoquinoline-3-carboxylic acid] | ≤ 1000 nM
CN(C)C1CN(c2ccc(-n3cc(C(=O)O)c(=O)c4cc(Cl)c(N5CCC[C@@H]5COc5ncccc5Cl)cc43)cn2)C1 [Compound 318, 6-Chloro-7-[(2R)-2-[[(3-chloropyridin-2-yl)oxy]methyl]pyrrolidin-1-yl]-1-[6-[3-(dimethyl-amino)azetidin-1-yl]pyridin-3-yl]-4-oxoquinoline-3-carboxylic acid] | ≤ 1000 nM
O=C(O)c1cn(-c2cnn(C3CN(CC(F)F)C3)c2)c2cc(N3CCC[C@@H]3COc3ncccc3Cl)c(Cl)cc2c1=O [Compound 319, 6-Chloro-7-[(2R)-2-[[(3-chloropyridin-2-yl)oxy]methyl]pyrrolidin-1-yl]-1-[1-[1-(2,2-difluoroethyl)azetidin-3-yl]pyrazol-4-yl]-4-oxoquinoline-3-carboxylic acid] | ≤ 1000 nM
